Laboratory results taken from patent US20220364056A1, “SHORT-CHAIN FATTY ACID PENTANOATE AS ENHANCER FOR CELLULAR THERAPY AND ANTI-TUMOR THERAPY” (PHILIPPS-UNIVERSITÄT MARBURG, priority 2019, published 2022).

Tests used:
[1] = tested on: CD8+ cytotoxic T lymphocytes (CTLs); assay: murine CTLs cultivated under suboptimal conditions with SCFAs; cytokines and effector molecules by flow cytometry and ELISA; format: cell-based
Description: It is known that the glycolytic metabolic pathway promotes IFN-γ expression and T cell effector function. […] We next investigated if acetylation of H4 was increased at CTL-characteristic loci (Ifnγ, Tbx21 and Eomes) after treatment of CTLs with pentanoate. […] Due to the high level of heterogeneity and plasticity within T lymphocytes, we next investigated possible effects of pentanoate on other CD8^+ T cell subtypes. […] To gain further insight into possible therapeutic strategies, we next investigated the impact of pentanoate on human CD8^+ T lymphocytes.
(§1) (A) Experimental design for the treatment of CTLs with the water-soluble fraction of intestinal content derived from SPF or GF mice. (B and C) Frequencies of IFN-γ- and TNF-α-producing CTLs treated with the extract from luminal content derived from indicated organs. Representative results of two experiments are shown (n=3). (D) ELISA was performed to measure the secretion of TNF-α by CLTs treated as shown in (A). (E) Quantitative measurement of total SCFA amounts in fecal samples of SPF and GF mice (n=5). (F and G) The percentage of IFN-γ^+ TNF-α^+ CTLs treated with the indicated SCFAs for three days (n=3, one of three independent experiments is shown). (H) The secretion of TNF-α from CTLs treated with SCFAs was determined by ELISA (n=3, one of two independent experiments is shown). (I) The fluorogenic HDAC assay was applied to measure the HDAC inhibitory activity of SCFAs on CTLs. The value for unstimulated CTLs was arbitrarily set to 1.0. Four independent experiments were performed. (J and K) Representative contour plots (J) and bar graphs (K) showing the frequency of IFN-γ+ and TNF-α+ cells after pentanoate (2 mM) or VPA (0.5 mM) administration. Three similar experiments were performed. (L and M) The frequency of Eomes- and T-bet-expressing CTLs treated with pentanoate (2 mM) or VPA (0.5 mM) for three days was analyzed by flow cytometry (n=4). (N) ChIP assay showing the acetylation of histone H4 at the promoter regions of Ifnγ and Eomes genes after 24 hours of treatment of CTLs with pentanoate. Data are from pooled chromatin of three mice.
Representative histogram plots (A) and bar graphs (B) are showing the frequency of Annexin V^+ cells. Three similar experiments were performed. (C) Representative effector molecule staining of CD8^+ T cells polarized under suboptimal CTL-inducing conditions, treated with pentanoate or TSA (10 nM Sigma-Aldrich) in presence of 2-DG (1 mM, Sigma-Aldrich) or rapamycin (100 nM, Sigma-Aldrich) for 3 days. Three independent experiments were performed. (D) Western blot analysis of H3Ac and H4Ac in CD8^+ T cells treated with SCFAs for 3 days. (E) Pan-H4Ac ChIP qPCR analysis for Tbx21 promoter accessibility in pentanoate-treated CTLs. Data are from pooled chromatin of three mice. (F and G) CD8^+ T cells isolated from WT and Tbx21^−/− mice were polarized under suboptimal CTL-inducing conditions in presence of increasing pentanoate concentrations. Representative contour plots (F) and bar graphs (G) show the frequency of IFN-γ+ and IL-17A^+ cells. Two similar experiments were performed. […]

mTOR = assay: phosphorylation of mTOR and S6 in human CTLs; format: cell-based; conditions: three days
Method: (A and B) CTLs were cultured in medium containing 1.0% FCS and treated with pentanoate (2.5 mM) for three days. Representative histogram plots and bar graphs indicate the phoshorylated levels of mTOR (A) and S6 ribosomal protein (B), respectively (n=3 pooled from three independent experiments). (C and D) Human CTLs were cultured in medium containing 1.0% serum and treated with indicated HDACi for three days. Representative histogram plots and bar graphs indicate the phoshorylated levels of mTOR (C) and S6 ribosomal protein (D), respectively (data points represent four individual healthy donors) (E) Measurement of extracellular acidification rate (ECAR) for in vitro generated murine CTLs cultured with or without 2.5 mM pentanoate for three days. ECAR was measured under basal conditions and in response to glucose (10 mM), oligomycin (2 μM), and 2-deoxy-glucose (2-DG, 100 mM). One of three independent experiments is shown.

[2] = tested on: class II HDACs (HDAC4, HDAC5, HDAC6 and HDAC9); assay: HDAC inhibition of recombinant class II HDAC isoforms; format: biochemical
Method: (A) The production of SCFAs, branched-chain fatty acids (BCFAs) and medium-chain fatty acids (MCFAs) by 16 human commensals was measured by GC-MS. All bacteria were grown in vitro until stationary growth phase before the measurement of fatty acids in supernatants. (B and C) HDAC inhibition of recombinant class I and class II HDAC isoforms by cell-free supernatants derived from 16 members of human commensal community. Significance was tested against YCFA medium. (D) Impact of bacterial SCFAs, BCFAs and MSCFAs on the activity of class I and II HDAC enzymes. TSA was used as a control pan-HDAC inhibitor.

class I HDAC isoforms = assay: HDAC inhibition of recombinant class I HDAC isoforms; format: biochemical; conditions: cell-free supernatants vs YCFA medium; TSA as control
human CD8+ T lymphocytes = human CD8+ T lymphocytes differentiated into CTLs, flow cytometry; format: cell-based; conditions: healthy donors
Method: (A and B) CD8^+ T cells isolated from spleens and LNs were polarized under Tc17-inducing conditions and treated with pentanoate for 3 days. Representative contour plots (A) and bar graphs (B) indicate the frequency of IL-17^+ and IFN-γ+ cells. Three similar experiments were performed. (C and D) CD8^+ T cells isolated from spleens and LNs were polarized under Tc9-inducing conditions and treated with pentanoate for 3 days. Representative contour plots (C) and bar graphs (D) are showing the frequency of IL-9^+ and IFN-γ+ cells. Three similar experiments were performed. (E and F) The expression of granzyme B, IFN-γ and Eomes in pentanoate-treated human CTLs was analysed by flow cytometry. Five independent experiments were performed (E). For Eomes, mean fluorescence intensity (MFI) values are shown (F, n=3).
(A) CD8^+ T cells isolated from peripheral blood of healthy donors were differentiated into CTLs in presence or absence of indicated HDACi. Representative contour plots and dot plots indicate the frequency of TNF-α+ and IFN-γ^+ cells. Data points in the graphs represent individual donors (n=4, performed in 4 independent experiments) (B-G) Phenotyping of pentanoate-treated ROR1-specific CD8^+ CAR T cells (CARROR1 T cells). (B) Experimental setup for the functional analysis is shown. (C) The cytokine secretion (IFN-γ and TNF-α) was analysed in supernatants of pentanoate-treated CARROR1 T cells by ELISA. (D) The surface expression of CD25 was measured by flow cytometry. (E) The secretion of IL-2 was detected in supernatants of CARROR1 T cells by ELISA. (F) Proliferation of CARROR1 T cells was determined by CFSE labelling. CARROR1 T cells pre-treated with pentanoate were stained with CFSE and subsequently co-cultured with […] cells in the absence of pentanoate. CD8^+ T cells without the CAR construct were used as mock control cells. […] The percentage of lysed target cells was determined in 1 hour intervals (effector-to-target cell (E:T) ratio=2.5:1). […]

histones H3 and H4 = assay: Western blot of H3Ac and H4Ac in CD8+ T cells; format: cell-based, murine; conditions: SCFAs for 3 days
Method: Representative histogram plots (A) and bar graphs (B) are showing the frequency of Annexin V^+ cells. Three similar experiments were performed. (C) Representative effector molecule staining of CD8^+ T cells polarized under suboptimal CTL-inducing conditions, treated with pentanoate or TSA (10 nM Sigma-Aldrich) in presence of 2-DG (1 mM, Sigma-Aldrich) or rapamycin (100 nM, Sigma-Aldrich) for 3 days. Three independent experiments were performed. (D) Western blot analysis of H3Ac and H4Ac in CD8^+ T cells treated with SCFAs for 3 days. (E) Pan-H4Ac ChIP qPCR analysis for Tbx21 promoter accessibility in pentanoate-treated CTLs. Data are from pooled chromatin of three mice. (F and G) CD8^+ T cells isolated from WT and Tbx21^−/− mice were polarized under suboptimal CTL-inducing conditions in presence of increasing pentanoate concentrations. Representative contour plots (F) and bar graphs (G) show the frequency of IFN-γ+ and IL-17A^+ cells. Two similar experiments were performed.

HDAC = assay: fluorogenic HDAC assay on CTL-derived cell lysates; format: biochemical, murine; conditions: unstimulated CTLs set to 1.0
Method: as §1, with “(N) ChIP assay showing the acetylation of histone H4 at the promoter regions of Ifnγ and Eomes genes after 24 hours of treatment of CTLs with pentanoate. Data are from pooled chromatin of three mice.” left out

Compound: O=CC[C@@H](O)[C@H](O)[C@H](O)CO [2-DG, 2-deoxyglucose, reference compound]
- IFN-γ production in CTLs ([1]; 2-DG 1 mM or rapamycin 100 nM, 3 days): reduction

Compound: CC(C)(CNC(=O)c1cccc(-c2noc(C(F)(F)F)n2)c1)c1coc(-c2ccccc2)n1 [TMP-195, reference compound]
- phosphorylation level of S6 ribosomal protein (mTOR): neither mocetinostat (HDAC class I inhibitor MGCD0103) nor TMP 195 (HDAC class II inhibitor) had a significant effect

Compound: CC(/C=C/C(=O)NO)=C\[C@@H](C)C(=O)c1ccc(N(C)C)cc1 [TSA, trichostatin A, reference compound]
- activity of class II HDACs [2]: inhibited
- activity of class I HDAC isoforms (class I HDAC isoforms): inhibited
- reversal of the effect on granzyme B+IFN-γ+ cells by rapamycin ([1]; rapamycin 100 nM co-treatment): could not be reversed
- percentages of granzyme B+IFN-γ+ CD8+ T cells ([1]; vs control CTLs, TSA 10 nM, 3 days): substantially enhanced

Compound: Nc1ccccc1NC(=O)c1ccc(CNc2nccc(-c3cccnc3)n2)cc1 [mocetinostat, reference compound]
- phosphorylation level of S6 ribosomal protein (mTOR): neither mocetinostat (HDAC class I inhibitor MGCD0103) nor TMP 195 (HDAC class II inhibitor) had a significant effect
- expression of TNF-α and IFN-γ (human CD8+ T lymphocytes): promoted the similar effects

Compound: CCC(=O)O [propionate, reference compound]
- acetylation of histones H3 and H4 (histones H3 and H4): increased acetylation
- HDAC activity of CTL-derived cell lysates (HDAC): strong reduction of HDAC activity
